Measurements taken from the supplement of paper PMC10307832.

Experiments:
Experiment in all cases: relative viability (nuclei count vs DMSO), 5 days (fraction); higher = more cells survive
[1] = system: EKVX
In short: (§1)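 Dosing by pin tool came one day after lung cancer cell lines were seeded in 1536-well plates, using either one drug or a fixed anchor-drug dose plus five library-drug doses (not always all listed) in √10 steps. After 5 days, nuclei were counted on 4× images. Relative viability is treated-well nuclei count divided by vehicle-well nuclei count, and values are medians of duplicate plates.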

[2] = system: NCI-H2405
In short: as §1

[3] = system: PC-14
In short: as §1

[4] = system: EPLC-272H
In short: as §1

[5] = system: NCI-H1975
In short: as §1

[6] = system: LU99A
In short: as §1

[7] = system: EMC-BAC-2
In short: as §1

[8] = system: HCC-827
In short: as §1

[9] = system: NCI-H2126
In short: as §1

[10] = system: LK-2
In short: as §1

[11] = system: HCC-78
In short: as §1

Molecule `CC(=O)O[C@@]12CO[C@@H]1C[C@H](O)[C@@]1(C)C(=O)[C@H](O)C3=C(C)[C@@H](OC(=O)[C@H](O)[C@@H](NC(=O)OC(C)(C)C)c4ccccc4)C[C@@](O)([C@@H](OC(=O)c4ccccc4)[C@H]21)C3(C)C` [Docetaxel] + N=C(N)NC(=N)NCCc1ccccc1 [Phenformin] (partner 250 µM) has a relative viability ([1]; first compound 0.0002 µM) of 0.264, a relative viability ([1]; first compound 0.000632 µM) of 0.218 and a relative viability ([1]; first compound 0.002 µM) of 0.191. It also gave a relative viability ([1]; first compound 0.006325 µM) of 0.149, a relative viability ([1]; first compound 0.02 µM) of 0.137 and a relative viability ([2]; first compound 0.0002 µM) of 0.393. For the same molecule, the relative viability ([2]; first compound 0.000632 µM) was 0.419, the relative viability ([2]; first compound 0.002 µM) was 0.315 and the relative viability ([2]; first compound 0.006325 µM) was 0.297. It also gave a relative viability ([2]; first compound 0.02 µM) of 0.26, a relative viability ([3]; first compound 0.0002 µM) of 0.575 and a relative viability ([3]; first compound 0.000632 µM) of 0.212. The relative viability ([3]; first compound 0.002 µM) was 0.129, the relative viability ([3]; first compound 0.006325 µM) was 0.0718 and the relative viability ([3]; first compound 0.02 µM) was 0.0382. It also gave a relative viability ([4]; first compound 0.0002 µM) of 0.304, a relative viability ([4]; first compound 0.000632 µM) of 0.242 and a relative viability ([4]; first compound 0.002 µM) of 0.194. It also gave a relative viability ([4]; first compound 0.006325 µM) of 0.0792, a relative viability ([4]; first compound 0.02 µM) of 0.0848 and a relative viability ([5]; first compound 0.0002 µM) of 0.406. It also gave a relative viability ([5]; first compound 0.000632 µM) of 0.334, a relative viability ([5]; first compound 0.002 µM) of 0.209 and a relative viability ([5]; first compound 0.006325 µM) of 0.148. It also gave a relative viability ([5]; first compound 0.02 µM) of 0.134, a relative viability ([6]; first compound 0.0002 µM) of 0.811 and a relative viability ([6]; first compound 0.000632 µM) of 0.656. For the same molecule, the relative viability ([6]; first compound 0.002 µM) was 0.364, the relative viability ([6]; first compound 0.006325 µM) was 0.335 and the relative viability ([6]; first compound 0.02 µM) was 0.242. It also gave a relative viability ([7]; first compound 0.0002 µM) of 0.509, a relative viability ([7]; first compound 0.000632 µM) of 0.412 and a relative viability ([7]; first compound 0.002 µM) of 0.306. It also gave a relative viability ([7]; first compound 0.006325 µM) of 0.278, a relative viability ([7]; first compound 0.02 µM) of 0.177 and a relative viability ([8]; first compound 0.0002 µM) of 0.392. The relative viability ([8]; first compound 0.000632 µM) was 0.426, the relative viability ([8]; first compound 0.002 µM) was 0.357 and the relative viability ([8]; first compound 0.006325 µM) was 0.247. For the same molecule, the relative viability ([8]; first compound 0.02 µM) was 0.213, the relative viability ([9]; first compound 0.0002 µM) was 0.517 and the relative viability ([9]; first compound 0.000632 µM) was 0.468. It also gave a relative viability ([9]; first compound 0.002 µM) of 0.297, a relative viability ([9]; first compound 0.006325 µM) of 0.33 and a relative viability ([9]; first compound 0.02 µM) of 0.223. The relative viability ([10]; first compound 0.0002 µM) was 0.369, the relative viability ([10]; first compound 0.000632 µM) was 0.27 and the relative viability ([10]; first compound 0.002 µM) was 0.118. For the same molecule, the relative viability ([10]; first compound 0.006325 µM) was 0.153, the relative viability ([10]; first compound 0.02 µM) was 0.124 and the relative viability ([11]; first compound 0.0002 µM) was 0.582. The relative viability ([11]; first compound 0.000632 µM) was 0.615, the relative viability ([11]; first compound 0.002 µM) was 0.409 and the relative viability ([11]; first compound 0.006325 µM) was 0.371. It also gave a relative viability ([11]; first compound 0.02 µM) of 0.354.
